15 molecules from ChEMBL document CHEMBL3991601, “The target landscape of clinical kinase drugs” (Science, 2017) can be followed below.

Activity calls are given as the source filed them. Cut-off read from the data, not from the text of the source: actives have a measured Kd and inactives only a lower limit.

In experiment [1] the target is T1, Serine/threonine-protein kinase TAO3 (Homo sapiens, UniProt Q9H2K8).
T1 sequence (Q9H2K8 whole entry): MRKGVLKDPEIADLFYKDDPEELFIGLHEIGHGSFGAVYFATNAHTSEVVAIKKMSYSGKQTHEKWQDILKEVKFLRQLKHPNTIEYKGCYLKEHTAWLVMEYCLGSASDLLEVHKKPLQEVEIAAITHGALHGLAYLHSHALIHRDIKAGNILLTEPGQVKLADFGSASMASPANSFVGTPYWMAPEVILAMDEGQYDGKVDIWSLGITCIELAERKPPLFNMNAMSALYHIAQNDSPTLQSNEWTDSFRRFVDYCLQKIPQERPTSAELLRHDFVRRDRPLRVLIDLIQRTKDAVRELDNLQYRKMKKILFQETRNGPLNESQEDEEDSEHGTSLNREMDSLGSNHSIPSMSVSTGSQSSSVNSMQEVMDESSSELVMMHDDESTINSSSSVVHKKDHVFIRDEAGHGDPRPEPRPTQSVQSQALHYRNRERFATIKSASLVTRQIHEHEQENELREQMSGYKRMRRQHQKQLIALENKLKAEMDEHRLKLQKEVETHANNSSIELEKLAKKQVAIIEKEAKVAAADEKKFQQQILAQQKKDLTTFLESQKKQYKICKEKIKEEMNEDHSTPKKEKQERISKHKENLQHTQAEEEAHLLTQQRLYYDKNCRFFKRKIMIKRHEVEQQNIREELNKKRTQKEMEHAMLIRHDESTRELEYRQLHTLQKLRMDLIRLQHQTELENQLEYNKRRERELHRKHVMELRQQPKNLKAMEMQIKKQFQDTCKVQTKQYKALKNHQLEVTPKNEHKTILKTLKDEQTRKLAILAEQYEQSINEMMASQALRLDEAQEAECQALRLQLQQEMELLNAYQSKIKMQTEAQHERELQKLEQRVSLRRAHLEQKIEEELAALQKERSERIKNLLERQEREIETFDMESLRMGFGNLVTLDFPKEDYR

Another experiment deals with T2, Ephrin type-B receptor 4 (Homo sapiens, UniProt P54760).
T2 sequence (P54760 whole entry): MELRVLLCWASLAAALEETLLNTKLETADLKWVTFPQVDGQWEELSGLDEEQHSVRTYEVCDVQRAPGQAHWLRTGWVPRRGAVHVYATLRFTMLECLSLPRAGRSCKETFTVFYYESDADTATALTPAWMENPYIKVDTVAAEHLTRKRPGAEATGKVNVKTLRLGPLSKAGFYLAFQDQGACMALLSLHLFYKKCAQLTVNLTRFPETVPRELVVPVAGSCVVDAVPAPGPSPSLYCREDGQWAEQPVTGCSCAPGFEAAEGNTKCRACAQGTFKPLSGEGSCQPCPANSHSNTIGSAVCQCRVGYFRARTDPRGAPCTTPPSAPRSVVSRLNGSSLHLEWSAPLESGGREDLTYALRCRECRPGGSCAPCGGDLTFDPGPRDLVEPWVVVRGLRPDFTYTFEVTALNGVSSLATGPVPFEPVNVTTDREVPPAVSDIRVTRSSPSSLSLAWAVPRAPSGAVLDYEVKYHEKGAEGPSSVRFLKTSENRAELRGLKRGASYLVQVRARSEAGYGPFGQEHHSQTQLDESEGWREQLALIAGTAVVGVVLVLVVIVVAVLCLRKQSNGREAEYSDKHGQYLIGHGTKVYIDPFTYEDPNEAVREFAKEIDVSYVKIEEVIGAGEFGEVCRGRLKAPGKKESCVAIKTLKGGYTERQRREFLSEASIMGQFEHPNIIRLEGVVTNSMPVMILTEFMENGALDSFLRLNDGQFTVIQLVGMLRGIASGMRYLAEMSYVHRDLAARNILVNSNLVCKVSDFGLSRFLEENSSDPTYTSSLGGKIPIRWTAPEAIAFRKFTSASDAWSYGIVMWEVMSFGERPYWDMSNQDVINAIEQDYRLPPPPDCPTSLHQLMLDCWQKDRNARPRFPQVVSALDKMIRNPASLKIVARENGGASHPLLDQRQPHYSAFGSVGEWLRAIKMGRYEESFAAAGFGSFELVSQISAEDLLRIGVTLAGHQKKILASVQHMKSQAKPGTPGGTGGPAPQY

For another experiment, the target named is T3, Ephrin type-B receptor 6 (Homo sapiens, UniProt O15197).
T3 sequence (O15197 whole entry): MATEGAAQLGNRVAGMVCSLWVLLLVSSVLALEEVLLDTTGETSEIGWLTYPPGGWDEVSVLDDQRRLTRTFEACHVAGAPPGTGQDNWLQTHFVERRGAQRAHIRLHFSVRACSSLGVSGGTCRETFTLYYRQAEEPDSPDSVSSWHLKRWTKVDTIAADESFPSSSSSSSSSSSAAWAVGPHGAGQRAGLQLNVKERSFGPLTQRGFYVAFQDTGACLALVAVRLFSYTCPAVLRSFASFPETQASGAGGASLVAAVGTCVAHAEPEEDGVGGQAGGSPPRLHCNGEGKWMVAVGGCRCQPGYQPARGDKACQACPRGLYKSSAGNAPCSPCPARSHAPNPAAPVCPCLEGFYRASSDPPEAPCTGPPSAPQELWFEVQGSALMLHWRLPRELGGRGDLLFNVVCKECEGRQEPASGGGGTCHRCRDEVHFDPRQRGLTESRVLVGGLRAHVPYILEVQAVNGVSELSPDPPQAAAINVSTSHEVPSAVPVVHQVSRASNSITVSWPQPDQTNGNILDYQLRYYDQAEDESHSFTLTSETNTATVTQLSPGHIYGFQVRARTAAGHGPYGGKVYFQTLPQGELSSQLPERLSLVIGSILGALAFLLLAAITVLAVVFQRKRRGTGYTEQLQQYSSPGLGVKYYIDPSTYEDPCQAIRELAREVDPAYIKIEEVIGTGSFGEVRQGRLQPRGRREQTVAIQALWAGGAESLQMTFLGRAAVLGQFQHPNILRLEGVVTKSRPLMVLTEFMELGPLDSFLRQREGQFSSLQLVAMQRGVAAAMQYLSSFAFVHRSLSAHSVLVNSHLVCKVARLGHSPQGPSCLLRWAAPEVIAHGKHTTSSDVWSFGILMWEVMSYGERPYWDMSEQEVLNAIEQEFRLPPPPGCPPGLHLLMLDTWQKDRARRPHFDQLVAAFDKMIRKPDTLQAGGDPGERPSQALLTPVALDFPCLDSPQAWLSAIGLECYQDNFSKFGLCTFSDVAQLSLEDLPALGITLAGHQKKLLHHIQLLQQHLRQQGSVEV

For experiment [2], the target named is Epithelial discoidin domain-containing receptor 1 (Homo sapiens, UniProt Q08345).
Note: in the data inactive means no Kd found up to 30 µM.

Epithelial discoidin domain-containing receptor 1, sequence (Q08345 whole entry, the tested form may be a part): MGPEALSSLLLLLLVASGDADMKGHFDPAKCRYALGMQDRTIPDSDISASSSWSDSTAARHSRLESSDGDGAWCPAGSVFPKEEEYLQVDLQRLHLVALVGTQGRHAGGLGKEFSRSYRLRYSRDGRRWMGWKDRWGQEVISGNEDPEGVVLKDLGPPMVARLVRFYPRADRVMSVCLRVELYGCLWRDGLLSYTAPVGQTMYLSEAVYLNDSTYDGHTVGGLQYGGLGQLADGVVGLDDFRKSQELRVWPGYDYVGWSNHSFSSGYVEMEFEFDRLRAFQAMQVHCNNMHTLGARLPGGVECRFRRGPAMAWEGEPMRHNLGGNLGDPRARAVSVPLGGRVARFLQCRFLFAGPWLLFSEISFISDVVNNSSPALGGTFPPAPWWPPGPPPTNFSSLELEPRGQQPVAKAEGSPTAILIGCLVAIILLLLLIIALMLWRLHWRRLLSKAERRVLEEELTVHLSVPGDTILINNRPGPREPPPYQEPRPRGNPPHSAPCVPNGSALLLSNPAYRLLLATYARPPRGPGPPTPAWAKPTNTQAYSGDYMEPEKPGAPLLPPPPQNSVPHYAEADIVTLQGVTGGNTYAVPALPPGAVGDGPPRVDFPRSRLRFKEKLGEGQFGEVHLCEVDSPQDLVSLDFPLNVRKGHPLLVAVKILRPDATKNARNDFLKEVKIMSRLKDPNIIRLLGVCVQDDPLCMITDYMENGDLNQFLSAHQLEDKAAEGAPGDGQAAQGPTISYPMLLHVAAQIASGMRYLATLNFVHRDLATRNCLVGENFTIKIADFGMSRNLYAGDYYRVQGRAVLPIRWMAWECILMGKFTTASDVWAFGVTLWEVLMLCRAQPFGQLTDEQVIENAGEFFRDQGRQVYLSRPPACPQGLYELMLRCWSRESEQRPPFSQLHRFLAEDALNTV

Consider `Cc1cc(C(=O)Nc2cc(Oc3ccc4nc(NC(=O)C5CC5)cn4n3)ccc2C)n(C)n1` [TAK-593], for which the Kd (commonly the free concentration of one partner at which half of the binding sites on the other are occupied at equilibrium, for simple one-to-one binding) in experiment [1] is > 30 µM (inactive); at Ephrin type-B receptor 4, > 30 µM (inactive); on Ephrin type-B receptor 6 it was > 30 µM (inactive); in experiment [2], 14.7 µM (active).

As to `Cn1cc(-c2[nH]c3cc(NC(=O)[C@H](N)C4CCCCC4)cc4c3c2C=NNC4=O)cn1`, the Kd is > 30 µM (inactive) in experiment [1], > 30 µM (inactive) at Ephrin type-B receptor 4, 1.53 µM on Ephrin type-B receptor 6 and > 30 µM (inactive) in experiment [2].

`C[C@@H]1COC(Nc2ccc3ncnc(Nc4ccc(OCc5nccs5)c(Cl)c4)c3c2)=N1` [VARLITINIB]: the Kd (in experiment [1]; on Ephrin type-B receptor 4; at Ephrin type-B receptor 6; in experiment [2]) was > 30 µM (inactive) throughout.

As to `CCc1cc2c(cc1N1CCC(N3CCOCC3)CC1)C(C)(C)c1[nH]c3cc(C#N)ccc3c1C2=O` [ALECTINIB], the Kd (in experiment [1]; at Ephrin type-B receptor 4; at Ephrin type-B receptor 6; in experiment [2]) was > 30 µM (inactive) each time.

Consider `C#Cc1cccc(Nc2ncnc3cc4c(cc23)OCCOCCOCCO4)c1` [ICOTINIB], for which the Kd (in experiment [1]; on Ephrin type-B receptor 4; at Ephrin type-B receptor 6; in experiment [2]) was > 30 µM (inactive) throughout.

`CC1(COc2ccc3c(c2)ncn3-c2ccc3cccc(N4CCC(N)CC4)c3n2)COC1` [CRENOLANIB]: the Kd (in experiment [1]; at Ephrin type-B receptor 4; at Ephrin type-B receptor 6; in experiment [2]) was > 30 µM (inactive) each time.

`COc1cc2ncnc3c2cc1OCCCCCN(C)Cc1ccc(Br)cc1N3` [JNJ-26483327]: the Kd (in experiment [1]; on Ephrin type-B receptor 4; at Ephrin type-B receptor 6; in experiment [2]) was > 30 µM (inactive) in each case.

For the molecule `CCOc1ccn(-c2ccc(F)cc2)c(=O)c1C(=O)Nc1ccc(Oc2ccnc(N)c2Cl)c(F)c1` [BMS-777607], the Kd is > 30 µM (inactive) in experiment [1], > 30 µM (inactive) at Ephrin type-B receptor 4, > 30 µM (inactive) on Ephrin type-B receptor 6 and 0.039 µM (active) in experiment [2].

Take `FC(F)(F)c1ccc(CNc2ccc(Cc3c[nH]c4ncc(Cl)cc34)cn2)cn1` [PEXIDARTINIB]: the Kd (in experiment [1]; on Ephrin type-B receptor 4; at Ephrin type-B receptor 6; in experiment [2]) was > 30 µM (inactive) throughout.

As for `COc1ccc2c(OCc3nnc4ccc(-c5ccccc5)nn34)ccnc2c1` [AMG-208], the Kd (in experiment [1]; at Ephrin type-B receptor 4; on Ephrin type-B receptor 6; in experiment [2]) was > 30 µM (inactive) each time.

As for `Cc1cc(-c2cc(OC(=O)c3ccccc3)ccc2Cl)cc2nnc(Nc3ccc(OCCN4CCCC4)cc3)nc12` [TG100-801], the Kd in experiment [1] is > 30 µM (inactive); on Ephrin type-B receptor 4, 0.711 µM (active); at Ephrin type-B receptor 6 it was > 30 µM (inactive); in experiment [2] it was 1.73 µM.

As to `CN(c1ncccc1CNc1nc(Nc2ccc3c(c2)CC(=O)N3)ncc1C(F)(F)F)S(C)(=O)=O` [PF-00562271], the dissociation constant Kd in experiment [1] is 11.9 µM (active); at Ephrin type-B receptor 4 it was > 30 µM (inactive); at Ephrin type-B receptor 6, > 30 µM (inactive); in experiment [2], > 30 µM (inactive).

Regarding `O=C(NC[C@H](O)CO)c1ccncc1Nc1ccc(I)cc1F` [PIMASERTIB], the Kd (in experiment [1]; on Ephrin type-B receptor 4; on Ephrin type-B receptor 6; in experiment [2]) was > 30 µM (inactive) in each case.

In the case of `c1cc(OCCN2CCCCC2)cc(-c2n[nH]c3ccc(-c4nc[nH]n4)cc23)c1` [CC-401], the Kd (in experiment [1]; on Ephrin type-B receptor 4; on Ephrin type-B receptor 6; in experiment [2]) was > 30 µM (inactive) throughout.

For the molecule `NC(=O)c1ccc(N(C(N)=O)c2c(F)cccc2F)nc1-c1ccc(F)cc1F` [VX-702], the Kd (in experiment [1]; at Ephrin type-B receptor 4; at Ephrin type-B receptor 6; in experiment [2]) was > 30 µM (inactive) throughout.
